Where “and” joins values, the source holds several entries; their conditions need not be identical. Equal entries are not always repeated.
Tests used:
[1] = system: streptozotocin-diabetic rats; assay: glucose level (in % of controls) upon oral administration to streptozotocin-diabetic rats; format: in vivo, rat (Female Albino-rats)
Procedure: (§1) A compound encompassed by the formula I, namely, 3-methyl-N-(5-methyl-3,3-diphenyl-pyrrolin-2-yl)pyrazole-5-carboxamide, upon oral administration to maximal streptozotocin-diabetic rats gave the following values for the glucose and fatty acid levels (in % of controls):
(§2) The test procedure was that described by E. LORCH in Diabetologia 7, 195-203 (1971).
(§3) Female (140-160 gr) Albino-rats were starved (24 hrs) and refed (16 hrs) one week after Streptozotocin administration (60 mg/kg s.c.). Mean plasma glucose values: 500-600 mg/100 ml plasma. Diabetic starved-refed control animals received the suspension vehicle alone.

[2] = system: streptozotocin-diabetic rats; assay: free fatty acid level (in % of controls) upon oral administration to streptozotocin-diabetic rats; format: in vivo, rat (Female Albino-rats)
Procedure: as §1, §2, §3

[3] = DL50 in the rat, single oral application; conditions: in vivo, observation period 10 days
Source text: The DL50 in the rat amounts to 8 g/kg (single oral application: observation period 10 days).

[4] = 100 μmol/kg oral, 4 hours after application
[5] = 300 μmol/kg oral, 2 hours after application
[6] = 300 μmol/kg oral, 6 hours after application
[7] = 1000 μmol/kg oral, 4 hours after application

In the case of `Cc1cc(C(=O)NC2=NC(C)CC2(c2ccccc2)c2ccccc2)[nH]n1` (stereo not drawn) [3-methyl-N-(5-methyl-3,3-diphenyl-1-pyrrolin-2-yl)-pyrazole-5-carboxamide], the Glucose ([1]; 100 μmol/kg oral, 2 hours after application) is reported as 70 % of controls, the Glucose [1, 4] is reported as 80 % of controls and 96 % of controls and 50 % of controls and the Glucose ([1]; 100 μmol/kg oral, 6 hours after application) is reported as 60 % of controls. For the same compound, the Glucose [1, 5] was 76 % of controls and 70 % of controls, the Glucose [1, 6] was 71 % of controls and 59 % of controls and the Glucose [1, 7] was 89 % of controls and 80 % of controls. For the same compound, the Free fatty acids [2, 4] was 56 % of controls, the Free fatty acids [2, 5] was 59 % of controls and the Free fatty acids ([2]; 300 μmol/kg oral, 4 hours after application) was 72 % of controls and 62 % of controls. For the same compound, the Free fatty acids [2, 6] was 50 % of controls, the Free fatty acids [2, 7] was 57 % of controls and the LD50 at 240 h [3] was 8000 mg/kg.

— patent publication US4005100A, “Pyrazole-5-carboxamides” (Hoffmann-La Roche Inc., priority 1972, dated 1977)
